Results reported in patent publication US20220071960A1, “CANCER TREATMENTS” (IMPERIAL COLLEGE INNOVATIONS LIMITED, priority 2018, published 2022).

Experiments:
human NMT1 (HsNMT1) = biological target: T1, human NMT1 (HsNMT1) (Homo sapiens, UniProt P30419); assay: HsNMT1 fluorescence-based assay (CoA detection by CPM); assay type: biochemical
T1 sequence (P30419 1-496): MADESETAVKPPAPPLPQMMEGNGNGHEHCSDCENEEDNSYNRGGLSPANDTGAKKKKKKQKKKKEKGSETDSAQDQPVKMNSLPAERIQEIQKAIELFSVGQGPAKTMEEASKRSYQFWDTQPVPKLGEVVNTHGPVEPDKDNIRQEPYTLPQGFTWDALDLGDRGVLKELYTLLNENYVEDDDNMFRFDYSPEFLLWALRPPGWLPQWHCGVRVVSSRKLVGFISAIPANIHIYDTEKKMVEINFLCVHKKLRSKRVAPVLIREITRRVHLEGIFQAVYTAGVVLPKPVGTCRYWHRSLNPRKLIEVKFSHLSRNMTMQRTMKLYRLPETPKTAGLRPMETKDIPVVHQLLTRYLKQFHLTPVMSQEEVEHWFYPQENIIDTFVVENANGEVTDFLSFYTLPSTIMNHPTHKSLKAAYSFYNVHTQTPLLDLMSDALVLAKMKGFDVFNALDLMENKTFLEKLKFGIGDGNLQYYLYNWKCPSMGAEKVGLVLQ
Description: The IC50 values for human NMT1 (HsNMT1) of Compounds 5 and 7 were measured using a sensitive fluorescence-based assay based on detection of CoA by 7-diethylamino-3-(4-maleimido-phenyl)-4-methylcoumarin, as described in Goncalves, V., et al., Analytical Biochemistry, 2012, 421, 342-344 and Goncalves, V., et al., J. Med. Chem, 2012, 55, 3578.

MRC5 cells = assay: Metabolic activity assay (MTS assay); assay type: cell-based; details: Homo sapiens, MRC5 fibroblast cells, 72 h
Description: Compounds 5 and 7 were also tested for activity in an in vitro metabolic activity assay using the human cell line MRC5. Compounds having activity in inhibiting metabolic activity in the assay are expected to be useful as agents for preventing and/or treating cancer, by virtue of being inhibitors of human NMT1 and/or NMT2.
MRC5 cells (cell type: fibroblast cells) were grown in DMEM media (supplemented with 10% FBS) and were seeded in a 96-well plate, 24 h prior to treatment. Cell suspensions were prepared by adjusting the cell density to the appropriate concentration (as stated in the Table 1 below) and 50 μL of the cell suspension was transferred to wells B-G in columns 2-11 of a 96-well plate. […]
After 72 h, 20 μL MTS reagent (Promega, prepared according to the supplier protocol) was added to each well of the 96-well plate. The plate was incubated at 37° C. for 2 h and the absorbance per well was measured at 490 nm with an EnVision plate reader. The average absorbance value of the negative control (Puromycin-treated cells) was subtracted from each value and the metabolic activity was calculated as a percentage relative to the positive control (DMSO-treated cells). EC50 values were calculated using GraphPad.

Shep-ER-N-MYC cell line [1] = assay: Flow cytometry (cell number, caspase3, cell cycle), Shep-ER-N-MYC; assay type: cell-based, human
From the text: (§1) Single-cell suspensions were stained with the following monoclonal antibody: α-Active Caspase3 (BD Biosciences, C92-605, 550821, PE) and c-Myc (Abeam, Y69, ab190560). To analyse DNA content, we stained with FxCycle Violet (ThermoFisher Scientific, F10347). To assess proliferation, we used the Click-iT EdU Alexa Fluor 488 Flow Cytometry Assay Kit (ThermoFisher Scientific, C10420) according to manufacturer's instructions. Zombie NIR (Biolegend, 423105) was used to exclude dead cells. The cells were fixed in a 4% solution of PFA, permeabilised with Cytofix/Cytoperm (BD Bioscience, 554714) and washed in Perm/Wash Buffer (BD Bioscience, 554723). Samples were acquired on a MACSQuant VYB (Miltenyi Biotec) and analysed using the FlowJo software (v10.4, Tree star).
(§2) The experiment was performed in a 24 well plate and in technical duplicate. On day 0, 7,800 cells/well for the Shep and 15,000 cells/well for the SKNAS were seeded in 500 μL media. On day 1, the media was removed and 600 μL of media with 100 nM of Tamoxifen, to induce N-Myc, or ethanol as control. On day 2, the respective concentrations of NMT inhibitor were added. After 6 hours, 24 hours, 48 hours and 72 hours the cells were treated according to the general procedures; however, all the media was collected to not loose apoptotic cells, and Trypsin (ThermoFisher Scientific, 25200056) was used to harvest the cells. […]

SKNAS-ER-N-MYC cell line [2] = assay: Flow cytometry (cell number, caspase3, cell cycle), SKNAS-ER-N-MYC; assay type: cell-based, human; details: MYCN activated cells; FIG. 19
From the text: as §1, §2

SKNAS-ER-N-MYC cell line [3] = assay: CellTiter Blue metabolic viability, SKNAS-ER-N-MYC; assay type: cell-based, human; details: 96 hours, with or without induction of MYCN
From the text: (§3) In the experimental protocols described herein the SKNAS and Shep cell lines were genetically engineered to model differences between high grade neuroblastoma (which are usually marked by MYCN amplifications and with particular poor clinical prognosis) and low grade neuroblastoma. Accordingly, the SKNAS and/or Shep cell lines “with N-MYC induction” described herein will be understood to be cell lines treated with tamoxifen and represent aggressive, high grade type cancer cells. Conversely, the SKNAS and/or Shep cell lines “without N-MYC induction” described herein will be understood to be cell lines not treated with tamoxifen and represent less aggressive forms of cancer cells (Huang et al., Cold Spring Harb. Perspect. Med., 2013, 3(10), 1-22).
(§4) At the respective end points of the experiments 20 μL/well of the CellTiter Blue Assay (Promega, G8081) were added and the cells were incubated at 37° C. for 3 hours. The fluorescence was measured at 570 nm using an EnVision™ plate reader. As a positive control, the highest DMSO concentration was added to the cells (usually 0.4% DMSO); as a negative control, the cells were treated with 10 μg/mL Puromycin and 1 uM Staurosporine (Merck, P7255 and S4400, respectively).
The experiment was performed in a 48 well plate and in technical triplicate. On day 0, 5,500 cells/well were seeded in 200 μL media. […]

P-493-6 cell line = assay: CellTiter Blue metabolic viability, P-493-6; assay type: cell-based
From the text: The P-493-6 cell line is a non-transformed B cell line that can be genetically engineered to have either “low” levels of c-Myc, “medium” levels of c-Myc or “high” levels of c-Myc. The terms “low”, “medium” and “high” are descriptors commonly used in the art and will be readily understood to mean: • i) “low” levels of c-Myc-a level of MYC expression which represents non-proliferating normal cells (i.e. a level of MYC expression not sufficient to cause the cycling of the cells); • ii) “medium” levels of c-Myc-a level of MYC expression which represents normal proliferating cells; and • iii) ““high” levels of c-Myc-a level of MYC expression which represents enforced/deregulated expression of c-Myc, typically observed in cancerous cells. At the respective end points of the experiments 20 μL/well of the CellTiter Blue Assay (Promega, G8081) were added and the cells were incubated at 37° C. for 3 hours. The fluorescence was measured at 570 nm using an EnVisionTM plate reader. As a positive control, the highest DMSO concentration was added to the cells (usually 0.4% DMSO); as a negative control, the cells were treated with 10 μg/mL Puromycin and 1 uM Staurosporine (Merck, […] and […], respectively). The experiment was performed in a 96 well plate and in technical quadruplicate. […]

Shep-ER-N-MYC cell line [4] = assay: CellTiter Blue metabolic viability, Shep-ER-N-MYC; assay type: cell-based, human; details: 72 hours, with or without induction of MYCN
From the text: as §3, §4
The experiment was performed in a 96 well plate and in technical quadruplicate. On day 0, 1,000 cells/well were seeded in 50 μL media. […]

| IC50 (human NMT1 (HsNMT1)) | Compound | EC50 (MRC5 cells) | cell cycling (Shep-ER-N-MYC cell line [1]; MYCN activated cells, FIG. 17) | cell cycling (Shep-ER-N-MYC cell line [1]; cell line without activated MYCN) | cell cycling (SKNAS-ER-N-MYC cell line [2]) | cell death with high versus low levels of MYCN (SKNAS-ER-N-MYC cell line [3]) | effect on cell viability (P-493-6 cell line; 10 nM, 72 hours, Myc high cell lines) | cell death depending on c-MYC level (P-493-6 cell line; 48 hours and 72 hours, c-MYC high, medium, low) | cell death with high versus low levels of MYCN (Shep-ER-N-MYC cell line [4]) |
| --- | --- | --- | --- | --- | --- | --- | --- | --- | --- |
| 0.4 nM | CNC(=O)c1nn(C)c(C)c1CCOc1cc(Cl)ccc1-c1ccc2ncc(CCN)n2c1 [Compound 7, 4-(2-{2-[3-(2-aminoethyl)imidazo[1,2-a]pyridin-6-yl]-5-chlorophenoxy}ethyl)-N,1,5-trimethyl-1H-pyrazole-3-carboxamide] | 37 nM |  |  |  |  |  |  |  |
|  | Cc1nn(C)c(C)c1CCOc1c(-c2ccc3c(c2)c(CN(C)C)nn3C)ccc(F)c1F [Compound 2, 1-(5-(3,4-difluoro-2-(2-(1,3,5-trimethyl-1H-pyrazol-4-yl)ethoxy)phenyl)-1-methyl-1H-indazol-3-yl)-N,N-dimethylmethanamine] |  | do not reduce their cycling | stops cycling at 48 hours | do not reduce their cycling | increased cell death more rapidly at lower concentrations | measurable effects on cell viability | clear MYC-dependent increase in cell death | increased cell death more rapidly at lower concentrations |
| 1.5 nM | Cc1c(CCOc2cc(Cl)ccc2-c2ccc3ncc(CCN)n3c2)c(C(=O)N(C)C)nn1C [Compound 5, 4-(2-{2-[3-(2-aminoethyl)imidazo[1,2-a]pyridin-6-yl]-5-chlorophenoxy}ethyl)-N,N,1,5-tetramethyl-1H-pyrazole-3-carboxamide] | 13 nM |  |  |  |  |  |  |  |
